# Test results taken from patent publication US7943606B2, “Compositions and methods to control abnormal cell growth” (CanCure Laboratories, LLC, priority 2005, dated 2011).
# Assays:
# [1] = tested on: CCF-STTG1 cells; assay: Viability of CCF-STTG1 astrocytoma cells (MTT assay); format: cell-based, human; conditions: 100-200 μM, 72 hours
# Procedure: (§1) To quantify cell death, around the time when significant and characteristic morphological changes took place, cells were pulse-labeled for 10 minutes with [^3H]thymidine to measure DNA activity as described elsewhere [Tomono, M. and Kiss, Z. (1995), “Ethanol enhances the stimulatory effects of insulin and insulin-like growth factor-I on DNA synthesis in NIH 3T3 fibroblasts,” Biochem. Biophys. Res. Commun. 208, 63-67]. Also, cells were collected as suspensions using trypsin, an established method in cell biology, followed by re-plating of cells in fresh tissue culture medium. If no viable cells were obtained after one week in culture, it meant that the cells at the time of re-plating were dead. Survival values obtained with untreated cells were considered 100%. For the determination of relative number of viable cells after treatments, in most cases the MTT assay was used. This calorimetric assay is based on the ability of living cells, but not dead cells, to reduce 3-(4,5-dimethyl thiazol-2-yl)-2,5-diphenyltetrazolium bromide [Carmichael, J, De Graff, W. G., Gazdar, A. F., Minna, J. D. and Mitchell, J. B. (1987), “Evaluation of tetrazolium-based semi-automated calorimetric assay: Assessment of chemosensitivity testing,” Cancer Res. 47, 936-942]. For this assay, cells were plated in 96-well plates, and the MTT assay was performed both in untreated and treated cell cultures. […]
# [2] = tested on: U-87 cells; assay: Viability of U-87 malignant glioma cells (MTT assay); format: cell-based, human; conditions: 100-200 μM, 72 hours
# Procedure: as §1
# [3] = tested on: MXT tumor; assay: MXT mouse mammary tumor model: tumor volume and survival; format: in vivo; conditions: Example 31
# From the text: Tumors were developed in first generation hybrid BDF1 (C57 B1 female×DBA/2 male) adult female mice kept at specified pathogen free (SPF) hygienic level. Suspensions of HL-60 human leukemia cells, or approximately 0.1 cm^3 volume of tumor tissue derived from HT-168 human melanoma, PC-3 human prostate adenocarcinoma, T47D human breast carcinoma, MXT mouse mammary cancer, or mouse B16 melanoma cells were implanted subcutaneously to develop the tumors. After 12-18 days when the tumor-bearing mice were first treated, the size of the tumors was in the 0.2-0.4 cm^3 range. All compounds used were dissolved in physiological (0.9%) saline (NaCl), and the agents, alone or in combinations, were applied subcutaneously or intraperitoneally in 50 μl volume. Tumor volume was determined by calipers in three dimensions; this technique is well known to one having ordinary skill in the art. Tumor volume was calculated according to the generally accepted formula: V=a^2×b×π/6, where “a” and “b” mean the shortest and longest diameter, respectively, of the measured tumor.
# The mouse mammary MXT tumor was developed as described above. On day 7 after transplantation of tumor cells, the animals were either remained untreated (group 1) or were treated with 2 mg/kg of CisPt alone (Group 2), or 4 mg/kg of CisPt alone (Group 3), or 4.6 mg/kg of CCDTHT alone (Group 4), or 2 mg/kg of CisPt+4.6 mg/kg of CCDTHT (Group 5), or 4 mg/kg of CisPt+4.6 mg/kg of CCDTHT (Group 6). CCDTHT and CisPt were administered subcutaneously and intraperitoneally, respectively, once daily for 10 days, including a 2-day rest period after 5 days of treatment (i.e., the last treatment was on day 19). Each group consisted of 7 animals, and the mean values±std. dev. for tumor volumes and body weight are shown in TABLE 4 and TABLE 5, respectively. While in this tumor model CCDTHT alone reduced the tumor volume less effectively than in the human tumor models, it clearly added to the tumor volume-reducing effect of CisPt (TABLE 4). A dramatic reduction in tumor volume was particularly evident in Group 6 (4 mg/kg CisPt+4.6 mg/kg CCDTHT).
# The mouse mammary MXT tumor model was developed and treated as described above. On day 7 the animals were either remained untreated (Group 1) or were treated with 3 mg/kg of CisPt (Group 2) or 3 mg/kg of CisPt+15 mg/kg of highly purified PALP (Group 3). CisPt and PALP were administered intraperitoneally and subcutaneously, respectively, seven times on every second day (i.e., treatments were terminated on day 21). Each group included 7 animals; the mean values±std. dev. for tumor volumes and body weight are shown in TABLE 6 and TABLE 7, respectively.
# The mouse mammary MXT tumor model was developed and treated as described above. On day 7 the animals either remained untreated (Group 1) or were treated with 3 mg/kg CisPt (Group 2), 3 mg/kg CisPt+4.6 mg/kg of CCDTHT (Group 3), or 3 mg/kg CisPt+4.6 mg/kg of CCDTHT+15 mg/kg highly purified PALP (Group 4). CisPt was administered intraperitoneally 9-times once every second day; CCDTHT was administered for 15 days once daily; and PALP was administered 3 times every 3rd day. In each group 7 mice were included. The mean values±std. dev. for tumor volumes and body weights are shown in TABLE 9 and TABLE 10, respectively.
# [4] = tested on: AN3CA cells; assay: Viability of AN3CA endometrial adenocarcinoma cells (MTT assay); format: cell-based, human; conditions: 100 μM, 72 hours
# Procedure: as §1
# [5] = CisPt 2 mg/kg i.p. and/or CCDTHT 4.6 mg/kg s.c., once daily
structure (smiles),measurement,setting,value
"CC[N+](C)(CC)CCOCc1ccc2sc3ccccc3c(=O)c2c1.[I-] [CCDTHT, N,N-diethyl-N-methyl-2-[(9-oxo-9H-thioxanthen-2-yl)methoxy]-ethanaminium iodide]",number of viable CCF-STTG1 cells,[1],sharply decrease
same,number of viable U-87 cells,[2],sharply decrease
same,survival,"[3]; CisPt 2 mg/kg and/or CCDTHT 4.6 mg/kg (groups 2, 4, 5)",30.6 ± 3.2 days
same,"Tumor volume, Day 14",[3]; [5],4.14 ± 0.71 cm^3
same,"Tumor volume, Day 18",[3]; [5],6.62 ± 0.43 cm^3
same,"Tumor volume, Day 21",[3]; [5],9.35 ± 0.69 cm^3
same,"Tumor volume, Day 7","[3]; CisPt 2 mg/kg i.p. and/or CCDTHT 4.6 mg/kg s.c., start of treatment",0.43 ± 0.07 cm^3
same,"decrease in the number of viable cells versus 0.5 mM HC-3, AN3CA",[4],much greater decreases in the number of viable cells compared to 0.5 mM HC-3
